Results reported in US20120077957A1, “Lactam-Bridged Melanocortin Receptor-Specific Peptides” (PALATIN TECHNOLOGIES, INC., priority 2009, published 2012).
Read-outs that look alike come from different tables or passages of the source. Bridge positions count the residues as written; N and C are the ends. Square brackets hold non-standard residues; d marks the D form. Peptide text beside a SMILES is read from it. * marks the point of attachment. Orn = NCCC[C@H](N)C(=O)O; Bn = c1ccc(C*)cc1

What was measured:
human MC4-R [1] = target: T1, human MC4-R (Homo sapiens, UniProt P32245); test: cAMP functional assay in HEK-293 T-REx cells expressing human MC4-R, induced with doxycycline 0.1 ng/mL (low density); type: cell-based; conditions: doxycycline 0.1 ng/mL, averages of all comparable assays; for Emax: HEK293-T-REx, maximal cAMP stimulation, NDP-α-MSH = 100%, read-out: Emax; for EC50: human MC4-R cAMP assay, read-out: Ec50
T1 construct: expressed in transfected cells; host or cells: HEK293 T-REx (tetracycline-regulated, Invitrogen); cell line from Palatin Technologies with license from the University of Michigan
From the text: A HEK293 cell line transfected with human MC4-R (from Palatin Technologies, US, with license from the University of Michigan) was used. The human MC4-R was introduced to HEK293 by using the T-REx™ System, Invitrogen. The T-REx™ System employs a tetracycline-regulated mammalian expression system that uses regulatory elements from the E. coli Tn10-encoded tetracycline (Tet) resistance operon. By use of the T-REx™ System, expression of the gene of interest, the human MC4-R gene, is repressed in the absence of tetracycline or doxycycline and induced in the presence of tetracycline or doxycycline (see T-REx™ System Manual, published by Invitrogen).
Cells were then counted and volume was adjusted to 5×10^4 cells per 200 μL.
The cells were then dispensed into 96-well plates (BD 353916) in 198 μL (about 5×10^4) cells/well and incubated for 10 minutes at 37° C. The compound to be tested was diluted with DMSO to a final concentration of 1 mM. Serial dilution was prepared in polypropylene removable 12-well library tube strips (VWR cat #83009-682). 120 μL of the 1 mM compound stock was pipetted in the second column on the plate.
2 μL of the standard, [Nle^4, D-Phe^7]alpha-Melanocyte Stimulating Hormone (NDP-α-MSH), or compound was added to the 96-well plate using the Janus robotic system. All assay samples were run in duplicate (i.e. each sample was in two low dox and two high dox plates, respectively). The plates were gently shaken and incubated for 15 minutes at 37° C. The reaction was stopped by adding 15 μL of lysis buffer per well and the plates were shakened for 30 minutes at room temperature.
Agonist stimulation of the MC4-R activates adenylate cyclase, which is an enzyme that catalyses the formation 3′,5′-cyclic adenosine monophosphate (cAMP) from adenosine triphosphate (ATP). […] Fluoresence ratios were then calculated as described in the CisBio HTRF kit, with GraphPad Prism software used to plot the change in fluorescence percent values versus cAMP concentration using the variable slope dose response curve and, based on calculated cAMP concentrations, to determine EC50 and Emax values. […]

human MC4-R [2] = target: T1, human MC4-R; test: Competitive inhibition binding assay with [I125]-NDP-α-MSH or Eu-NDP-α-MSH, membranes of HEK-293 cells expressing recombinant hMC4-R
Protocol: A competitive inhibition binding assay was performed using membrane homogenates prepared from HEK-293 cells that express recombinant hMC4-R, hMC3-R, or hMC5-R, and from B-16 mouse melanoma cells (containing endogenous MC1-R). In some instances, HEK-293 cells that express recombinant hMC1-R were employed. In the examples that follow, all MC3-R, MC4-R and MC5-R values are for human recombinant receptors. […] After incubation for 60 minutes at 37° C., the assay mixture was filtered and the membranes washed three times with ice-cold buffer. Filters were dried and counted in a gamma counter for bound radioactivity. […] Maximal specific binding (100%) was defined as the difference in radioactivity (cpm) bound to cell membranes in the absence and presence of 1 μM NDP-α-MSH. […] Ki values for test peptides of the present invention were determined using Graph-Pad Prism® curve-fitting software.
Alternatively, a competitive inhibition binding assay was performed employing Eu-NDP-α-MSH (PerkinElmer Life Sciences catalog No. AD0225) with determination by time-resolved fluorometry (TRF) of the lanthanide chelate. […] After incubation for 90 minutes at 37° C., the reaction was stopped by filtration over AcroWell 96-well filter plates (Pall Life Sciences). The filter plates were washed 4 times with 200 μL of ice-cold phosphate-buffered saline. DELFIA Enhancement solution (PerkinElmer Life Sciences) was added to each well. […] Each assay was conducted in duplicate and mean values were utilized. Ki values were determined by curve-fitting with Graph-Pad Prism® software using a one-site fixed-slope competition binding model.

[3] = human MC4-R, averages of all comparable assays, read-out: Ki

T1 sequence (P32245 whole entry): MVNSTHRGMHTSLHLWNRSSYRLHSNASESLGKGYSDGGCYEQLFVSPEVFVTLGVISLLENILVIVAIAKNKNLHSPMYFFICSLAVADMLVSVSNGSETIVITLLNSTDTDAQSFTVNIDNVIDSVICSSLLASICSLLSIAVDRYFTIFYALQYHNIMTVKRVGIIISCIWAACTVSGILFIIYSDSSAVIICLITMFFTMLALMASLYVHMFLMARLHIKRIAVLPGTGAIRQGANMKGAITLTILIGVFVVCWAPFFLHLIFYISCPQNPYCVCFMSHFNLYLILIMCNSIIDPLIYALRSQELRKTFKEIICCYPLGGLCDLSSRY

Compound	Emax (human MC4-R [1])	EC50 (human MC4-R [1])	Ki (human MC4-R [2]; [3])	Ki (human MC4-R [2])
CCCC[C@H](NC(C)=O)C(=O)N[C@H]1CCCNC(=O)CC[C@@H](C(N)=O)NC(=O)[C@H](Cc2c[nH]c3ccccc23)NC(=O)[C@H](CCCNC(=N)N)NC(=O)[C@@H](Cc2ccccc2)NC(=O)[C@H](Cc2c[nH]cn2)NC1=O [No. 36, Ac-Nle-cyclo(Orn-His-D-Phe-Arg-Trp-Glu)-NH2]	85%	0.2 nM	0.2 nM	–
CC(=O)N[C@@H](CCCNC(=N)N)C(=O)N[C@H]1CCCNC(=O)CC[C@@H](C(=O)O)NC(=O)[C@H](Cc2c[nH]c3ccccc23)NC(=O)[C@H](CCCNC(=N)N)NC(=O)[C@@H](Cc2ccccc2)NC(=O)[C@H](Cc2c[nH]cn2)NC1=O [No. 37, Ac-Arg-cyclo(Orn-His-D-Phe-Arg-Trp-Glu)-OH] (Ac-R[Orn]H[dF]RWE-OH; lactam 2-7)	88%	0.6 nM	12 nM	–
CC(=O)N[C@@H](CCCNC(=N)N)C(=O)N[C@H]1CCCNC(=O)CC[C@@H](C(N)=O)NC(=O)[C@H](Cc2c[nH]c3ccccc23)NC(=O)[C@H](CCCNC(=N)N)NC(=O)[C@@H](Cc2ccccc2)NC(=O)[C@H](Cc2c[nH]cn2)NC1=O [No. 38, Ac-Arg-cyclo(Orn-His-D-Phe-Arg-Trp-Glu)-NH2] (Ac-R[Orn]H[dF]RWE-NH2; lactam 2-7)	84%	1 nM	1 nM	–
CC(=O)N[C@@H](CCCCN)C(=O)N[C@H]1CCCNC(=O)CC[C@@H](C(N)=O)NC(=O)[C@H](Cc2c[nH]c3ccccc23)NC(=O)[C@H](CCCNC(=N)N)NC(=O)[C@@H](Cc2ccccc2)NC(=O)[C@H](Cc2c[nH]cn2)NC1=O [No. 40, Ac-Lys-cyclo(Orn-His-D-Phe-Arg-Trp-Glu)-NH2] (Ac-K[Orn]H[dF]RWE-NH2; lactam 2-7)	114%	0.2 nM	–	3 nM
CC(=O)N[C@@H](CCCNC(=N)N)C(=O)N[C@H]1CCCNC(=O)CC[C@@H](C(N)=O)NC(=O)[C@H](Cc2c[nH]c3ccccc23)NC(=O)[C@H](CCCNC(=N)N)NC(=O)[C@@H](Cc2ccccc2)NC(=O)[C@H](C)NC1=O [No. 41, Ac-Arg-cyclo(Orn-Ala-D-Phe-Arg-Trp-Glu)-NH2] (Ac-R[Orn]A[dF]RWE-NH2; lactam 2-7)	52%	7 nM	19 nM	–
CC(=O)N[C@@H](CCCNC(=N)N)C(=O)N[C@H]1CCCNC(=O)CC[C@@H](C(N)=O)NC(=O)[C@H](Cc2c[nH]c3ccccc23)NC(=O)[C@H](CCCNC(=N)N)NC(=O)[C@@H](Cc2ccccc2)NC(=O)[C@H](CCN)NC1=O [No. 43, Ac-Arg-cyclo(Orn-Dab-D-Phe-Arg-Trp-Glu)-NH2]	103%	0.1 nM	–	3 nM
CC(=O)N[C@@H](CCCNC(=N)N)C(=O)N[C@H]1CCCNC(=O)CC[C@@H](C(N)=O)NC(=O)[C@H](Cc2c[nH]c3ccccc23)NC(=O)[C@H](CCCNC(=N)N)NC(=O)[C@@H](Cc2ccccc2)NC(=O)[C@@H]2CCCN2C1=O [No. 47, Ac-Arg-cyclo(Orn-Pro-D-Phe-Arg-Trp-Glu)-NH2] (Ac-R[Orn]P[dF]RWE-NH2; lactam 2-7)	54%	6 nM	5 nM	–
CC(=O)N[C@@H](CCCNC(=N)N)C(=O)N[C@H]1CCCNC(=O)CC[C@@H](C(=O)O)NC(=O)[C@H](Cc2c[nH]c3ccccc23)NC(=O)[C@H](CCCNC(=N)N)NC(=O)[C@@H](Cc2ccccc2)NC(=O)[C@H](COCc2ccccc2)NC1=O [No. 48, Ac-Arg-cyclo(Orn-Ser(Bzl)-D-Phe-Arg-Trp-Glu)-OH] (Ac-R[Orn]S(Bn)[dF]RWE-OH; lactam 2-7)	50%	3 nM	5 nM	–
CC(=O)N[C@@H](CCCNC(=N)N)C(=O)N[C@H]1CC(=O)NCCCC[C@@H](C(=O)O)NC(=O)[C@H](Cc2c[nH]c3ccccc23)NC(=O)[C@H](CCCNC(=N)N)NC(=O)[C@@H](Cc2ccccc2)NC(=O)[C@H](CCCN)NC1=O [reference compound]	84%	12 nM	18 nM	–
CC(=O)N[C@@H](CCCNC(=N)N)C(=O)N[C@H]1CC(=O)NCCCC[C@@H](C(N)=O)NC(=O)[C@H](Cc2c[nH]c3ccccc23)NC(=O)[C@H](CCCNC(=N)N)NC(=O)[C@@H](Cc2ccccc2)NC(=O)[C@H](CCCN)NC1=O [reference compound]	79%	–	7 nM	–
CC(=O)N[C@@H](CCCNC(=N)N)C(=O)N[C@H]1CC(=O)NCCCC[C@@H](C(N)=O)NC(=O)[C@H](Cc2c[nH]c3ccccc23)NC(=O)[C@H](CCCNC(=N)N)NC(=O)[C@@H](Cc2ccccc2)NC(=O)[C@H](CCS(C)(=O)=O)NC1=O [reference compound]	29%	–	7 nM	–
CC(=O)N[C@@H](CCCNC(=N)N)C(=O)N[C@H]1CC(=O)NCCCC[C@@H](C(N)=O)NC(=O)[C@H](Cc2c[nH]c3ccccc23)NC(=O)[C@H](CCCNC(=N)N)NC(=O)[C@@H](Cc2ccccc2)NC(=O)[C@@H]2C[C@@H](N)CN2C1=O [reference compound]	61%	8 nM	5 nM	–
CC(=O)NCCC[C@@H]1NC(=O)[C@@H](NC(=O)[C@H](CCCNC(=N)N)NC(C)=O)CC(=O)NCCCC[C@@H](C(N)=O)NC(=O)[C@H](Cc2c[nH]c3ccccc23)NC(=O)[C@H](CCCNC(=N)N)NC(=O)[C@@H](Cc2ccccc2)NC1=O [reference compound]	62%	–	573 nM	–
CC(=O)N[C@@H](CCCNC(=N)N)C(=O)N[C@H]1CC(=O)NCCCC[C@@H](C(=O)O)NC(=O)[C@H](Cc2c[nH]c3ccccc23)NC(=O)[C@H](CCCNC(=N)N)NC(=O)[C@@H](Cc2ccccc2)NC(=O)[C@H](COCc2ccccc2)NC1=O [reference compound]	–	5 nM	9 nM	–
CC(=O)NCC[C@@H]1NC(=O)[C@@H](NC(=O)[C@H](CCCNC(=N)N)NC(C)=O)CC(=O)NCCCC[C@@H](C(N)=O)NC(=O)[C@H](Cc2c[nH]c3ccccc23)NC(=O)[C@H](CCCNC(=N)N)NC(=O)[C@@H](Cc2ccccc2)NC1=O [reference compound]	69%	–	–	33 nM
CC(=O)N[C@@H](CCCCN)C(=O)N[C@H]1CC(=O)NCCCC[C@@H](C(N)=O)NC(=O)[C@H](Cc2c[nH]c3ccccc23)NC(=O)[C@H](CCCNC(=N)N)NC(=O)[C@@H](Cc2ccccc2)NC(=O)[C@H](Cc2c[nH]cn2)NC1=O [reference compound] (Ac-KDH[dF]RWK-NH2; lactam 2-7)	85%	5 nM	9 nM	–
CC(=O)N[C@@H](CCCNC(=N)N)C(=O)N[C@H]1CC(=O)NCCCC[C@@H](C(N)=O)NC(=O)[C@H](Cc2c[nH]c3ccccc23)NC(=O)[C@H](CCCNC(=N)N)NC(=O)[C@@H](Cc2ccccc2)NC(=O)[C@H](C)NC1=O [reference compound] (Ac-RDA[dF]RWK-NH2; lactam 2-7)	74%	37 nM	19 nM	–
CC(=O)N[C@@H](CCCNC(=N)N)C(=O)N[C@H]1CC(=O)NCCCC[C@@H](C(N)=O)NC(=O)[C@H](Cc2c[nH]c3ccccc23)NC(=O)[C@H](CCCNC(=N)N)NC(=O)[C@@H](Cc2ccccc2)NC(=O)[C@H](CC(N)=O)NC1=O [reference compound] (Ac-RDN[dF]RWK-NH2; lactam 2-7)	91%	42 nM	–	32 nM
